Laboratory results as given in patent publication US20220372542A1, “DETECTION OF ANALYTES BY PROTEIN SWITCHES” (priority 2019, published 2022).

Columns and labels:
[1] = biological target: glucose dehydrogenase protein switch GDH-2007, GDH-105 variant (Bacillus subtilis, UniProt P12310); test: screen of GDH variants for glucose activity against analytes; format: biochemical; conditions: methotrexate 5.42 mM, pH 7.0, gluconic acid by RapidFire MS
Protocol: (§1) Glucose dehydrogenase (GDH) variant libraries comprising GDH polypeptides developed using GDH-105 (Codexis, Redwood, Calif.) as a backbone were prepared. Approximately 2800 GDH variants were prepared. Glucose activity was determined by either NADH kinetic assay using a spectrophotometer set at UV 340 or UV 360 at various time intervals or by endpoint measurement of gluconic acid using RapidFire mass spectrometer.

[2] = biological target: glucose dehydrogenase protein switch GDH-2010, GDH-105 variant (Bacillus subtilis, UniProt P12310); test: as above; format: biochemical; conditions: methotrexate 5.42 mM, pH 7.0, gluconic acid by RapidFire MS
Protocol: as §1

[3] = biological target: glucose dehydrogenase protein switch GDH-2004, GDH-105 variant (Bacillus subtilis, UniProt P12310); test: as above; format: biochemical
Protocol: as §1

[4] = biological target: glucose dehydrogenase protein switch GDH-2009, GDH-105 variant (Bacillus subtilis, UniProt P12310); test: as above; format: biochemical
Protocol: as §1

[5] = biological target: glucose dehydrogenase protein switch GDH-2008, GDH-105 variant (Bacillus subtilis, UniProt P12310); test: as above; format: biochemical; conditions: methotrexate 5.42 mM, pH 7.0, gluconic acid by RapidFire MS
Protocol: as §1

[6] = biological target: glucose dehydrogenase protein switch GDH-2028 (Rd4bb), variant of GDH-2025, C96F; L252V, SEQ ID NO: 15 (Bacillus subtilis, UniProt P12310, A159T/E170K/E96F/F155A/I165M/P194T/Q252V/V156S); test: warfarin inhibition of evolved GDH sensors (Table 13); format: biochemical; conditions: NAD+ 10 mM, glucose 5 mM, 100 mM PBS, 33° C.
Protocol: (§2) Evolved Warfarin sensors. GDH-105, GDH-2016, GDH-2025, GDH-2026, GDH-2027, and GDH-2028 glucose-responsive active areas were prepared using a single-layer active area system. The GDH was obtained from Codexis, Redwood City, Calif. The active area (0.33 mm^2) was coated onto a carbon working electrode in a single layer composition (Table 8). Following deposition of the active area, the active area was cured for three days at room temperature.
(§3) Experimental procedure. Testing of the GDH-105, GDH-2016, GDH-2025, GDH-2026, GDH-2027, and GDH-2028 sensors was conducted by immersing the electrode in a 100 mM PBS buffer solution at 33° C. NAD^+(10 mM) supplied to a test beaker containing PBS buffer followed by the addition of glucose (5 mM).

[7] = biological target: glucose dehydrogenase protein switch GDH-2027, variant of GDH-2025, C96F; A173G, SEQ ID NO: 12 (Bacillus subtilis, UniProt P12310, A159T/A173G/E170K/E96F/F155A/I165M/P194T/Q252L/V156S); test: as above; format: biochemical; conditions: NAD+ 10 mM, glucose 5 mM, 100 mM PBS, 33° C.
Protocol: as §2, §3

[8] = biological target: T1, glucose dehydrogenase GDH-105 (control, backbone) (Bacillus subtilis, UniProt P12310, E198G/I165M/P194T); test: as above; format: biochemical; conditions: NAD+ 10 mM, glucose 5 mM, 33° C.
Protocol: as §2, §3

[9] = biological target: glucose dehydrogenase protein switch GDH-2026, variant of GDH-2016, C96F; I141V, SEQ ID NO: 7 (Bacillus subtilis, UniProt P12310, A159T/E170K/E96F/F155A/I141V/I165M/P194T/Q252L/V156S); test: as above; format: biochemical; conditions: NAD+ 10 mM, glucose 5 mM, 100 mM PBS, 33° C.
Protocol: as §2, §3

[10] = biological target: glucose dehydrogenase protein switch GDH-2025 (Rd3bb), variant of GDH-2016, C96F, SEQ ID NO: 1 (Bacillus subtilis, UniProt P12310, A159T/E170K/E96F/F155A/I165M/P194T/Q252L/V156S); test: as above; format: biochemical; conditions: NAD+ 10 mM, glucose 5 mM, 100 mM PBS, 33° C.
Protocol: as §2, §3

[11] = biological target: T1, glucose dehydrogenase GDH-105 (control, backbone); test: warfarin inhibition of GDH sensor (FIGS. 9A and 9B); format: biochemical; conditions: 10, 30, 80, 180, and 300 uM warfarin; NAD+ 5 mM, glucose 1 mM, 33° C.
Protocol: (§4) Warfarin Sensor. Experimental GDH-105 and GDH-2016 glucose-responsive active areas were prepared using a single-layer active area system. The GDH was obtained from Codexis, Redwood City, Calif. The active area was coated onto a carbon working electrode in a single layer composition (Table 8). Following deposition of the active area, the active area was cured for three days at RT.
(§5) Experimental procedure. Testing of the GDH-105 and GDH-2016 sensors was conducted by immersing the electrode in a 100 mM PBS buffer solution at 33° C. NAD^+ (5 mM) supplied to a test beaker containing PBS buffer followed by the addition of glucose (1 mM).

[12] = biological target: glucose dehydrogenase protein switch GDH-2013, GDH-105 variant (Bacillus subtilis, UniProt P12310); test: screen of GDH variants for glucose activity against analytes; format: biochemical; conditions: warfarin 2.08 mM, pH 7.0, NADH kinetics at UV360
Protocol: as §1

[13] = biological target: T2, glucose dehydrogenase protein switch GDH-2016 (Rd2bb), GDH-105 variant, SEQ ID NO: 11 (Bacillus subtilis, UniProt P12310, A159T/E170K/E96C/F155A/I165M/P194T/Q252L/V156S); test: biochemical; conditions: read-out: inhibition at 300 uM warfarin
T2 construct: electrode sensor and screen
Protocol: as §4, with “Experimental” for “Warfarin Sensor. Experimental”
as §5

[14] = biological target: T2, glucose dehydrogenase protein switch GDH-2016 (Rd2bb), GDH-105 variant, SEQ ID NO: 11; format: biochemical; conditions: warfarin 2.08 mM, pH 7.0, NADH kinetics at UV360
Protocol: as §1

[15] = biological target: glucose dehydrogenase protein switch GDH-2005, GDH-105 variant (Bacillus subtilis, UniProt P12310); test: screen of GDH variants for glucose activity against analytes; format: biochemical; conditions: cortisol 2.08 mM, pH 7.5, NADH kinetics at UV340
Protocol: as §1

[16] = methotrexate 5.42 mM, pH 7.0, gluconic acid by RapidFire MS
[17] = warfarin 2.08 mM, pH 7.0, NADH kinetics at UV360

Compound: CN(Cc1cnc2nc(N)nc(N)c2n1)c1ccc(C(=O)N[C@@H](CCC(=O)O)C(=O)O)cc1 [Methotrexate]
- Activate/Inhibit (glucose activity) [1]: Inhibit
- Activate/Inhibit (glucose activity) [2]: Inhibit
- Activate/Inhibit (glucose activity) [3, 16]: Inhibit
- Activate/Inhibit (glucose activity) [4, 16]: Inhibit
- Activate/Inhibit (glucose activity) [5]: Inhibit

Compound: CC(=O)CC(c1ccccc1)c1c(O)c2ccccc2oc1=O (stereo not shown) [Warfarin, warfarin]
- GDH inhibition at 0.3 mM WF [6]: 84%
- GDH inhibition at 0.3 mM WF [7]: 79%
- GDH inhibition at 0.3 mM WF ([8]; 0.3 mM WF, 100 mM PBS): 5%
- inhibition to increasing warfarin concentrations ([8]; 10, 30, 80, 180, and 300 uM warfarin): remained unaffected
- GDH inhibition at 0.3 mM WF [9]: 78%
- GDH inhibition at 0.3 mM WF [10]: 79%
- inhibition of the sensor to increasing warfarin concentrations [11]: not affected
- Activate/Inhibit (glucose activity) [12]: Inhibit
- Activate/Inhibit (glucose activity) [3, 17]: Inhibit
- Activate/Inhibit (glucose activity) [4, 17]: Inhibit
- inhibition at 300 µM [13]: ~55%
- Activate/Inhibit (glucose activity) [14]: Inhibit

Compound: C[C@]12CCC(=O)C=C1CC[C@@H]1[C@@H]2[C@@H](O)C[C@@]2(C)[C@H]1CC[C@]2(O)C(=O)CO [Cortisol]
- Activate/Inhibit (glucose activity) [15]: Inhibit
- Activate/Inhibit (glucose activity) ([3]; cortisol 2.08 mM, pH 7.5, NADH kinetics at UV340): Inhibit
